Source: paper PMC7405012, “Detection of Chaetomium globosum, Ch. cochliodes and Ch. rectangulare during the Diversity Tracking of Mycotoxin-Producing Chaetomium-like Isolates Obtained in Buildings in Finland” (Toxins, 2020)
Converted amounts (≈) assume the structure as drawn. Read-outs that look alike come from different tables or passages of the source.

Assays:
boar spermatozoa [1] = experiment: cells; type: cell-based; conditions: for EC50: Spermatozoa, read-out: EC50 BSMIM Boar Sperm 20 min
boar spermatozoa [2] = experiment: cells; type: cell-based; conditions: for EC50: Spermatozoa, read-out: EC50 SMIDM Boar Sperm 2 h
[3] = system: porcine kidney cells (PK-15); experiment: cells; type: cell-based; conditions: for EC50: Sus scrofa, 48 h, read-out: EC50 ICP PK-15 2 days
resting boar spermatozoa [4] = experiment: Plasma membrane integrity of resting spermatozoa (SMIDR), calcein-AM + PI; type: cell-based; conditions: resting boar sperm, 24 °C; for CC50: Spermatozoa, 48 h, 2 days, read-out: EC50 Lethal Toxicity SMIDR 2 days
Procedure: (§1) The long-term effects of exposure to chaetoglobosin A and to the chaetoglobosin-containing extracts of the Ch. globosum MTAV35 and MTAV37 strains were measured in resting sperm cells exposed at 24 °C for two days. Three criteria were assessed: (1) the motility inhibition of resting boar spermatozoa (BSMIR); (2) the change in mitochondrial membrane potential (ΔΨ) observed using the potentiometric dye JC-1; and (3) the plasma membrane integrity (SMIDR) observed using the viability stain calcein-AM + propidium iodide (PI). […] By contrast, the EC50 concentrations in the SMIDR assays, which measured the lethal damages in plasma membrane after incubation for two days, were >50 times higher (Figure 5 and Table 3).
(§2) The boar sperm cells exposed for 2 days to commercial chaetoglobosin A and the crude extract of MTAV35 and MTAV37 were double-stained with the viability stains PI + calcein–AM, the SMIDR assay, as described earlier. The staining protocol was as follows: 200 μL of extended boar semen containing 27 × 10^6 sperm cells mL^−1 was mixed with 200 μL PBS containing 3 μg mL^−1 calcein-AM and 10 μg mL^−1 PI. The ΔΨm assay monitored the mitochondrial membrane potential changes (ΔΨm) by staining with the lipophilic potentiometric dye JC-1 as described by Mikkola et al. (2015). For the staining with JC-1 (35 µg mL^−1), 200 µL of the sperm cells were shaken and incubated at 37 °C for 5 min. After staining, the cells exposed in the SMIDR and the ΔΨm assays were inspected with fluorescence microscope using 400× magnification (Nikon Eclipse E600, Nikon Corporation, Tokyo Japan) with filters BP 450–490 nm/LP 520. The calcein–AM-stained cells with intact plasma membranes produced green fluorescence, whereas the PI-dyed cells with damaged plasma membranes produced red fluorescence. In JC-1 stained sperm cells, mitochondria with high membrane potential emitted yellow fluorescence, whereas depolarized mitochondria fluoresced green.
(§3) The EC50 concentration in these microscopic assays was defined as the lowest concentration where the ratio of cells similar to those in the solvent control was less than 50%. This EC50 fitted between EC90 and EC10 observed in the microscope calculating ca. 100–120 sperm cells from three microscopic fields. The maximal difference between four parallel tests in each of the two methods was one dilution step. The assays were calibrated with triclosan.

resting boar spermatozoa [5] = experiment: Motility inhibition of resting boar spermatozoa (BSMIR); type: cell-based; conditions: resting boar sperm; for EC50: Spermatozoa
Procedure: as §1, with “Three” for “The long-term effects of exposure to chaetoglobosin A and to the chaetoglobosin-containing extracts of the Ch. globosum MTAV35 and MTAV37 strains were measured in resting sperm cells exposed at 24 °C for two days. Three”
The procedure for the BSMIR assay measuring sublethal toxicity as motility inhibition, i.e., inability to respond to induction of motility in resting sperm cells is described below: The ethanol solutions (0.5–10 μL) were dispensed in 2000 μL of extended boar semen (Figen Ltd., Tuomikylä, Finland, density of 27 × 10^6 sperms mL^−1) incubated at 24 °C, and motility of the sperms was inspected in the phase-contrast microscope (400× magnification) with a heated stage, (Olympus CKX41, Tokyo, Japan; magnification 400×) and an image recording software (Cellsense® standard version 11.0.06, Olympus Soft Imaging Solutions GmbH, Münster, Germany, 2012) as described previously. […] The EC50 was calculated from the equation of the straight line between EC50-40 and EC80-90: Y = −ΔY/ΔX × X + C where Y is the motility closest to 50% of the motility of the solvent control, X is the EC50 concentration and C is a constant between 100% and 60%. All tests were run in triplicates and differences between replicate tests were within one dilution step (2-fold). The sperm assays were calibrated with triclosan and valinomycin.

resting boar spermatozoa [6] = experiment: Mitochondrial membrane potential (ΔΨm) assay with JC-1 in resting spermatozoa; type: cell-based; conditions: resting boar sperm; for EC50: Spermatozoa
Procedure: as §1, with “Three” for “The long-term effects of exposure to chaetoglobosin A and to the chaetoglobosin-containing extracts of the Ch. globosum MTAV35 and MTAV37 strains were measured in resting sperm cells exposed at 24 °C for two days. Three”
as §2, §3

resting PK-15 cells = experiment: Mitochondrial damage test: accelerated glucose consumption and extracellular acidosis; type: cell-based, porcine; conditions: for sublethal concentration that promoted the acceleration of glycolysis: PK-15 cells, positive controls for mitochondrial toxicity; for EC50: Sus scrofa
Procedure: The mitochondria were depolarized in sperm cells exposed to sublethal concentrations of chaetoglobosin A (Figure 5) and to the chaetoglobosin-containing extracts (Table 3). This observation aroused the suspicion regarding mitochondrial toxicity. The mitochondrial toxicity of the extracts containing chaetoglobosin was assessed by measuring the accelerated glucose consumption in resting PK-15 cells. […] By contrast, the positive controls for mitochondrial toxicity—enniatin B, moniliformin and valinomycin at sublethal concentrations of 1.5, 4 and 5 ng mL^−1, respectively—promoted the acceleration of glycolysis.
The test for mitochondrial damage as indicated by accelerated glucose consumption and extracellular acidosis was described earlier. The PK-15 cells were grown in 8-well flat-bottom chamber glass slides, seeded to a density of 4 × 10^4 cells mL^−1, in the respective medium for 48 h. The twofold serially diluted test substances or the vehicle only was dispensed into the wells. The glucose content of the wells was measured by using a glucose meter (Precision Xceed; Abbott Diabetes Care Ltd., Berkshire, United Kingdom). In wells that received nothing or the vehicle only, the glucose concentration decreased from an initial concentration (0 h) of 12 to 6 mM (24 h), but the pH remained as pH of 7.2. A glucose concentration after 24 h of ≤3 mM indicated excessive glucose consumption. Prior to the measurement of the pH, the chamber slides were transferred into ambient air for 1 h to allow CO2 to evaporate. A pH drop of 0.5 units in the toxin-exposed well compared to the vehicle only was considered proof of acidosis. Mitochondrial depolarization (ΔΨm assay) was read by a fluorescence microscope after 26 h of exposure to the toxicants from the monolayers double stained with the membrane potential-responsive fluorogenic dye JC-1 and with propidium iodide to assess the relaxing of the plasma membrane permeability barrier, similar to what was reported previously for sperm cells (27).

[7] = system: murine neuroblastoma cells (MNA); experiment: Inhibition of cell proliferation (ICP) assay, MNA; type: cell-based; conditions: MNA, 2 days, 37 °C
Procedure: The plate-grown biomass of the fungal pure cultures (100–300 mg) was extracted with ethanol as described earlier. The toxicity assays, namely BSMI assay after exposure for 30 min (rapid inhibition) and for one day (slow inhibition), SMID assay and ICP assay, were all described previously. The toxicity assays involving the ethanol extracts obtained from pure fungal cultures were performed using porcine cells (sperms and somatic cell lines) as indicators according to methods described before. The calculation of EC50—the half maximal effective concentration for the ethanol-dry substances and pure mycotoxins in the BSMI, SMID and ICP assays—were described previously.
The continuous cell line PK-15 (porcine kidney cells) and a malignant cell line (MNA cell line) provided by EVIRA (Helsinki, Finland) were used in the ICP assay. 5,5′,6,6′-tetrachloro-1,1′,3,3′-tetraethyl-benzimidazolylcarbocyanine iodide (JC-1, 3520-43-2), PI (25535-16-4) and calcein-AM (148504-34-1) were obtained from Invitrogen (Carlsbad, CA, USA). Alamethicin A4665 (T. arundinaceum) (CAS 27061-78-5), a mixture of alamethicin F50 peptaibols (MW 1962, 1976, 1976 and 1990), chaetoglobosin A (CAS 50335-03-0), sterigmatocystin (CAS 10048-13-5) and ochratoxin A (CAS 303-47-9) were obtained from Sigma-Aldrich (St. Louis, MO, USA). Malt extract and tryptic soy agar were obtained from Scharlab (Barcelona, Spain). The other chemicals were of analytical grade and were purchased from local suppliers. The biocides and the wetting agent Genapol-080 were purchased from Sigma-Aldrich Finland. The fungicide Boracol 10Rh was obtained from a local supplier. The selected biocides were Borax (600 µg mL^−1; sodium tetraborate, CAS: 1330-43-4), Boracol 10Rh containing disodium octaborate tetrahydrate (CAS: 12280-03-04) and didecyldimethylammonium chloride [CAS: 7173-51-5]), PHMB (CAS: 27083-27-8), phenoxyethanol (CAS: 122-99-6), chloramine, triclosan (5-Chloro-2-(2,4-dichlorophenoxy)phenol, CAS: 3380-34-5) and the wetting agent Genapol X-080 (CAS: 9043-30-5). Genapol X-080 and the biocides were purchased from Sigma-Aldrich, except for Boracol 10Rh, which was purchased from a local supplier.

[8] = 20 min, motile boar sperm, 20 min, 37 °C
[9] = 48 h, 24 °C, 2 days, read-out: EC50 Sublethal Toxicity BSMIR 2 days
[10] = 48 h, JC-1, 2 days, read-out: EC50 Sublethal Toxicity Depletion of ΔΨm 2 days
[11] = 24 h, PK-15, 1 day, read-out: EC50 Sublethal Toxicity Acceleration of glycolysis 1 day
[12] = 48 h, PK-15, 2 days, read-out: EC50 Sublethal Toxicity Acidosis 2 days

Compound	EC50 (boar spermatozoa [1]; [8]) [µg/mL]	EC50 (boar spermatozoa [2]; motile boar sperm, 2 h, 37 °C) [µg/mL]	EC50 ([3]; PK-15, 2 days, 37 °C) [µg/mL]	CC50 (resting boar spermatozoa [4]) [µg/mL]	EC50 (resting boar spermatozoa [5]; [9]) [ng/mL]	EC50 (resting boar spermatozoa [6]; [10]) [ng/mL]	sublethal concentration that promoted the acceleration of glycolysis (resting PK-15 cells) [ng/mL]	EC50 (resting PK-15 cells; [11]) [µg/mL]	EC50 (resting PK-15 cells; [12]) [µg/mL]	lethal concentration in resting PK-15 cells (number in parenthesis) (resting PK-15 cells) [µg/mL]	EC50 Sublethal Toxicity BSMIR 2 days (resting boar spermatozoa [5]; 24 °C, 2 days) [µg/mL]	EC50 Sublethal Toxicity Depletion of ΔΨm 2 days (resting boar spermatozoa [6]; JC-1, 2 days)	EC50 Sublethal Toxicity Acceleration of glycolysis 1 day (resting PK-15 cells; PK-15, 1 day)	EC50 Sublethal Toxicity Acidosis 2 days (resting PK-15 cells; PK-15, 2 days)	further results
CC(C)[C@@H]1NC(=O)[C@H](C)OC(=O)[C@@H](C(C)C)NC(=O)[C@@H](C(C)C)OC(=O)[C@H](C(C)C)NC(=O)[C@H](C)OC(=O)[C@@H](C(C)C)NC(=O)[C@@H](C(C)C)OC(=O)[C@H](C(C)C)NC(=O)[C@H](C)OC(=O)[C@@H](C(C)C)NC(=O)[C@@H](C(C)C)OC1=O [Valinomycin]	0.0001 (≈ 9e-05 µM)	70 (≈ 63 µM)	14 (≈ 12.6 µM)	5	0.05 (≈ 4.5e-05 µM)	0.05 (≈ 4.5e-05 µM)	5	0.005 (≈ 0.0045 µM)	0.005 (≈ 0.0045 µM)	5	–	–	–	–	EC50 (resting boar spermatozoa [5]; 96 h, 4 days, read-out: EC50 Sublethal Toxicity BSMIR 4 days): 0.05 ng/mL (≈ 4.5e-05 µM); EC50 (resting boar spermatozoa [6]; 96 h, JC-1, 4 days, read-out: EC50 Sublethal Toxicity Depletion of ΔΨm 4 days): 0.05 ng/mL (≈ 4.5e-05 µM)
CC(C)[C@H]1C(=O)O[C@H](C(C)C)C(=O)N(C)[C@@H](C(C)C)C(=O)O[C@H](C(C)C)C(=O)N(C)[C@@H](C(C)C)C(=O)O[C@H](C(C)C)C(=O)N1C [Enniatin B]	–	–	–	> 50	5000 (≈ 7.81 µM)	5000 (≈ 7.81 µM)	–	5 (≈ 7.81 µM)	5 (≈ 7.81 µM)	50	–	–	–	–	–
Alamethicin	–	–	–	–	–	–	–	–	–	–	0.2	0.2 µg/mL	None	None	EC50 BSMIM Boar Sperm 20 min (boar spermatozoa [1]; motile boar sperm, 20 min, 37 °C): 5 µg dry wt mL^−1; EC50 SMIDM Boar Sperm 2 h (boar spermatozoa [2]; motile boar sperm, 2 h, 37 °C): 1 µg dry wt mL^−1; EC50 ICP PK-15 2 days ([3]; PK-15, 2 days, 37 °C): 8 µg dry wt mL^−1; EC50 ICP MNA 2 days [7]: 8 µg dry wt mL^−1; EC50 Lethal Toxicity SMIDR 2 days (resting boar spermatozoa [4]): 0.2 µg/mL
COc1cc2c(c3oc4cccc(O)c4c(=O)c13)[C@@H]1C=CO[C@@H]1O2 [Sterigmatocystin, sterigmatocystin]	–	–	–	–	–	–	–	–	–	–	–	–	–	–	EC50 BSMIM Boar Sperm 20 min (boar spermatozoa [1]): >20 µg dry wt mL^−1; EC50 SMIDM Boar Sperm 2 h (boar spermatozoa [2]): >20 µg dry wt mL^−1; EC50 ICP PK-15 2 days [3]: 0.5 µg dry wt mL^−1
O=c1cc(O)c1=O [Moniliformin]	–	–	–	–	–	–	4	–	–	40	2 (≈ 20.4 µM)	None	4 µg/mL	4 µg/mL (≈ 40.8 µM)	–
CC1=C2C(=CO[C@H](C)[C@H]2C)C(O)=C(C(=O)O)C1=O [Citrinin, reference compound]	> 100	50 (≈ 200 µM)	10 (≈ 40 µM)	–	–	–	–	–	–	–	–	–	–	–	EC50 ([7]; Mus musculus, Neuroblastoma cell, 48 h, read-out: EC50 ICP MNA 2 days): 10 µg/mL (≈ 40 µM)
